Measurements reported in patent publication US20190316085A1, “Methods Of T-Lymphocyte Expansion” (Cambridge Enterprise Limited, priority 2015, published 2019).

Tests used:
Format in all cases: cell-based, mouse
PDH-E1α = test: Immunoblot for phospho-PDH E1α (S232) in treated CD8+ T-lymphocytes; details: 16 hours treatment
Method: FIG. 6A showns immunoblot analysis for HIF-1α, HDAC1, phospho-PDH E1α (S232) and total PDH-E1α in response to increasing concentrations of S-2HG-octyl ester or R-2HG-octyl ester, or 10 mM of the free acid forms of S-2HG or R-2HG for 16 hours. Cells were activated for 48 h with αCD3+αCD28 antibodies and then expanded for a further 4 days in the presence of IL-2 followed by treatment with the indicated concentration of S-2HG-octyl ester or R-2HG octyl ester, or 10 mM of the free acid forms of S-2HG or R-2HG for 16 hours. The arrow indicates HIF-1α protein.
Nuclear and cytosolic fractions were prepared from cells with the NE-PER kit (Thermo Scientific) and separated by SDS-PAGE. Proteins were transferred to PVDF membranes and then blocked in 5% milk prepared in phosphate-buffered saline (PBS) plus 0.05% Tween 20. Membranes were then incubated with primary antibodies overnight at 4° C. and horseradish peroxidase (HRP)-conjugated secondary antibodies for 1 h the next day. The following primary antibodies were used at a dilution of 1:1000: HIF1α (Novus), HIF2α (Novus), PDH-E1α (Abcam), PDH-E1α pS232 (Calbiochem), LaminB1 (Abcam), HDAC1 (Abcam), β-tubulin (Abcam), 4E-BP1 (Cell Signalling), phospho-4E-BP1 (S65) (Cell Signalling), phospho-4E-BP1 (T37/T46) (Cell Signalling) S6K (Cell Signalling), phopho-S6K (T389) (Cell Signalling), phopho-S6K (S371) (Cell Signalling).

CD8^+ T-lymphocytes = test: Glucose, lactate and VEGF measurements in media; details: 0.5 mM, 16 hours
Method: Each dot represent one donor mouse n≥16 mice. P-values are shown for each panel; one-way ANOVA for multiple comparisons (A, B and C). n.s.=non significant.
CD8^+ T-cells were expanded for 4 days and then treated for 16 h with S-2HG octyl ester or R-2HG octyl ester. Glucose and lactate levels in culture medium were measured with a Dade-Behring Dimension RXL analyser. Changes in metabolite concentrations relative to fresh media were normalized to viable cell counts. VEGF, IL-2 and IFN-γ protein levels in media were determined using the following kits from MesoScale Discovery: K150BMC-2 for VEGF, K15048D-2 for IFN-γ and K152QQD-2 for IL-2. Values were normalized to viable cell counts.

OT-I CD8^+ T-lymphocytes = test: Survival in the absence of IL-2 supplementation; details: 0.5 mM
Method: OT-I CD8^+ T-lymphocytes were incubated with target and control cells for 4 hours. n=3 mice per condition. […]
Cells were counted on an ADAM-MC automated cell counter (NanoEnTek) and viability was assessed by the exclusion of propidium iodide. Cell volume was determined using a Z2 Coulter counter (Beckman Coulter).

SMILES	phosphorylation of PDH-E1a (PDH-E1α)	VEGF production (CD8^+ T-lymphocytes)	glucose uptake (CD8^+ T-lymphocytes)	lactate secretion (CD8^+ T-lymphocytes)	ability to survive in the absence of IL-2 supplementation (OT-I CD8^+ T-lymphocytes)
CCCCCCCCOC(=O)[C@@H](O)CCC(=O)O [S-2HG-octyl ester, S-2HG octyl ester]	increased	elevated	elevated	elevated	elevated ability to survive
CCCCCCCCOC(=O)[C@H](O)CCC(=O)O [R-2HG-octyl ester]	increased	elevated	elevated	elevated	elevated ability to survive
